14 compounds from US7115611B2, “Phenyl derivatives, their manufacture and use as pharmaceutical agents” (Hoffmann-la Roche Inc., priority 2003, dated 2006) can be followed below.

Structures are written as SMILES.

The target in data set [1] is T1, PPARα (Homo sapiens, UniProt Q07869).
T1 construct: PPARα (aa 167 to 469); made in house; host or cells: E. coli BL21 (pLysS)
T1 sequence (Q07869 167-468 limits assumed): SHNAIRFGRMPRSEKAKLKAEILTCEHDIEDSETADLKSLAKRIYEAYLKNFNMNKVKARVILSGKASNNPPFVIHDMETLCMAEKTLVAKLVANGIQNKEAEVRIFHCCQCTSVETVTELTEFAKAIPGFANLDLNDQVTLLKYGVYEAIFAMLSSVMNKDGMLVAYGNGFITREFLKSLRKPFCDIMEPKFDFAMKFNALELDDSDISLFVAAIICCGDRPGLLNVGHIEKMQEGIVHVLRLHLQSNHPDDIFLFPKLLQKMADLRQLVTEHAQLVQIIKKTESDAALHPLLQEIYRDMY
The experiment in a line: PPARα receptor radioligand binding assay (SPA). The following applies: GST-PPARα-LBD fusion protein on SPA beads. From the text: (§1) Background information on the performed assays can be found in: Nichols J S et al. “Development of a scintillation proximity assay for peroxisome proliferator-activated receptor gamma ligand binding domain”, (1998) Anal. Biochem. 257:112–119.
(§2) Full-length cDNA clones for humans PPARδ and PPARα and mouse PPARγ were obtained by RT-PCR from human adipose and mouse liver cRNA, respectively, cloned into plasmid vectors and verified by DNA sequencing. Bacterial and mammalian expression vectors were constructed to produce glutathione-s-transferase (GST) and Gal4 DNA binding domain proteins fused to the ligand binding domains (LBD) of PPARδ (aa 139 to 442), PPARγ (aa 174 to 476) and PPARα (aa 167 to 469). To accomplish this, the portions of the cloned sequences encoding the LBDs were amplified from the full-length clones by PCR and then subcloned into the plasmid vectors. Final clones were verified by DNA sequence analysis.
(§3) Induction, expression, and purification of GST-LBD fusion proteins were performed in E. coli strain BL21 (pLysS) cells by standard methods (Ref: Current Protocols in Molecular Biology, Wiley Press, edited by Ausubel et al.).
(§4) PPARα receptor binding was assayed in TKE50 (50 mM Tris-HCl, pH 8, 50 mM KCl, 2 mM EDTA, 0.1 mg/ml fatty acid-free BSA and 10 mM DTT). For each 96 well reaction an 140 ng equivalent of GST-PPARα-LBD fusion protein was bound to 10 μg SPA beads (PharmaciaAmersham) in a final volume of 50 μl by shaking. The resulting slurry was incubated for 1 h at RT and centrifuged for 2 min at 1300 g. The supernatant containing unbound protein was removed and the semidry pellet containing the receptor-coated beads was resolved in 50 μl of TKE. […] All binding assays were performed in 96 well plates and the amount of bound ligand measured on a Packard TopCount using OptiPlates (Packard). Nonspecific binding was determined in the presence of 10^−4 M unlabelled compound. […]

In data set [2] the target is T2, PPARγ (Mus musculus, UniProt P37238).
T2 construct: PPARγ (aa 174 to 476); made in house; host or cells: E. coli BL21 (pLysS)
T2 sequence (P37238 174-475 isoform P37238-2): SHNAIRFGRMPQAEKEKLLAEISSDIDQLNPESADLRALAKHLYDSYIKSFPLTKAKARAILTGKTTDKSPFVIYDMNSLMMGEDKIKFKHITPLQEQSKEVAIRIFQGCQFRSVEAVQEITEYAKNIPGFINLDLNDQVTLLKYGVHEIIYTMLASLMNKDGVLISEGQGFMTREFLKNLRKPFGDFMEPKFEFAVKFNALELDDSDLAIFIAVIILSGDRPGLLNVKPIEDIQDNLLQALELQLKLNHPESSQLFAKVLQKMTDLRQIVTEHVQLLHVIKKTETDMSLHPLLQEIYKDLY
The data set can be described thus: PPARγ receptor radioligand binding assay (SPA). The following applies: GST-PPARγ-LBD fusion protein on SPA beads.
From the text: as §1, §2, §3
as §4, with “PPARγ receptor” for “PPARα receptor”, “reaction a” for “reaction an”, “of GST-PPARγ-LBD” for “of GST-PPARα-LBD”, “50 ul” for “50 μl”, “at 1300g.” for “at 1300 g.”

The target of data set [3] is T3, PPARδ (Homo sapiens, UniProt Q03181).
T3 construct: PPARδ (aa 139 to 442); made in house; host or cells: E. coli BL21 (pLysS)
T3 sequence (Q03181 139-441 limits assumed): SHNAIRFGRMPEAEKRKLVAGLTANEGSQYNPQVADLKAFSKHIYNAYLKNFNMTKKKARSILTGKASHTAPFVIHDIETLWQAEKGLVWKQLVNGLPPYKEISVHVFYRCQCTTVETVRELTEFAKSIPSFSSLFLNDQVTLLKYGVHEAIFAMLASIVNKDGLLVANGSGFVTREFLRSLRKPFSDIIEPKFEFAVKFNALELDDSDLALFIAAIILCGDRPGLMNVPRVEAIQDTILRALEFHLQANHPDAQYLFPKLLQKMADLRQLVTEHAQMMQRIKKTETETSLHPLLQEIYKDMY
The data set can be described thus: PPARδ receptor radioligand binding assay (SPA). The following applies: GST-PPARδ-LBD fusion protein on SPA beads.
From the text: as §1, §2, §3
PPARδ receptor binding was assayed in HNM10 (50 mM Hepes, pH 7.4, 10 mM NaCl, 5 mM MgCl2, 0.15 mg/ml fatty acid-free BSA and 15 mM DTT). For each 96 well reaction a 500 ng equivalent of GST-PPARδ-LBD fusion protein and radioligand, e.g. 20000 dpm {2-methyl-4-[4-methyl-2-(4-trifluoromethyl-phenyl)-thiazol-5-yl-ditritiomethylsulfanyl]-phenoxy}-acetic acid, was bound to 10 μg SPA beads (PharmaciaAmersham) in a final volume of 50 μl by shaking. The resulting slurry was incubated for 1 h at RT and centrifuged for 2 min at 1300 g. […] Radioligand was added and the reaction incubated at RT for 1 h and scintillation proximity counting performed in the presence of test compounds was determined. All binding assays were performed in 96 well plates and the amount of bound ligand was measured on a Packard TopCount using OptiPlates (Packard). […]

Take `Cc1cc(OC(C)c2ccc(-c3ccc(C(F)(F)F)cc3)nc2C)ccc1SCC(=O)O` (racemic) [Example 20, [rac]-(2-Methyl-4-{1-[2-methyl-6-(4-trifluoromethyl-phenyl)-pyridin-3-yl]-ethoxy}-phenylsulfanyl)-acetic acid]: the results for the IC50 in data set [1], in data set [2] and in data set [3] were 454 nM, over 10000 nM and 2 nM, respectively.

Take `Cc1cc(OCc2cnc(-c3ccc(C(F)(F)F)nc3)nc2C2CC2)ccc1OC(C)(C)C(=O)O` [Example 105, 2-{4-[4-Cyclopropyl-2-(6-trifluoromethyl-pyridin-3-yl)-pyrimidin-5-ylmethoxy]-2-methyl-phenoxy}-2-methyl-propionic acid]: the melting point (usually the temperature of the solid-liquid transition) fell in the range of 185 to 185.5 °C.

Take `Cc1c(OCc2cnc(-c3ccc(C(F)(F)F)cc3)nc2C2CC2)ccc(OC(C)(C)C(=O)O)c1C` [Example 106, 2-{4-[4-Cyclopropyl-2-(4-trifluoromethyl-phenyl)-pyrimidin-5-ylmethoxy]-2,3-dimethyl-phenoxy}-2-methyl-propionic acid]: the melting point is 214 to 215 °C (dec.).

Turning to `Cc1cc(OCc2cnc(-c3ccc(C(F)(F)F)cc3)nc2C(F)(F)F)ccc1OC(C)(C)C(=O)O` [Example 107, 2-Methyl-2-{2-methyl-4-[4-trifluoromethyl-2-(4-trifluoromethyl-phenyl)-pyrimidin-5-ylmethoxy]-phenoxy}-propionic acid], the melting point was 149 to 151 °C (dec.).

For `Cc1cc(OCc2cnc(-c3ccc(C(F)(F)F)cc3)cc2C(F)(F)F)ccc1OC(C)(C)C(=O)O` [Example 108, 2-Methyl-2-{2-methyl-4-[4-trifluoromethyl-6-(4-trifluoromethyl-phenyl)-pyridin-3-ylmethoxy]-phenoxy}-propionic acid], the melting point lay within 148 to 149 °C.

Consider `Cc1cc(OCc2cnc(-c3ccc(OC(F)(F)F)cc3)cc2Cl)ccc1OC(C)(C)C(=O)O` [Example 109, 2-{4-[4-Chloro-6-(4-trifluoromethoxy-phenyl)-pyridin-3-ylmethoxy]-2-methyl-phenoxy}-2-methyl-propionic acid], for which the melting point is 179 to 181 °C (dec.).

The compound `Cc1cc(OCc2cnc(-c3ccc(C(F)(F)F)cc3)nc2CCO)ccc1OC(C)(C)C(=O)O` [Example 110, 2-{4-[4-(2-Hydroxy-ethyl)-2-(4-trifluoromethyl-phenyl)-pyrimidin-5-ylmethoxy]-2-methyl-phenoxy}-2-methyl-propionic acid] gave a melting point of 155 to 155.5 °C.

For the compound `Cc1cc(OCc2cnc(-c3ccc(OC(F)(F)F)cc3)nc2C(F)(F)F)ccc1OC(C)(C)C(=O)O` [Example 111, 2-Methyl-2-{2-methyl-4-[2-(4-trifluoromethoxy-phenyl)-4-trifluoromethyl-pyrimidin-5-ylmethoxy]-phenoxy}-propionic acid], the melting point is 153.5 to 154.5 °C.

`COCCc1nc(-c2ccc(C(F)(F)F)cc2)ncc1COc1ccc(OC(C)(C)C(=O)O)c(C)c1` [Example 140, 2-{4-[4-(2-Methoxy-ethyl)-2-(4-trifluoromethyl-phenyl)-pyrimidin-5-ylmethoxy]-2-methyl-phenoxy}-2-methyl-propionic acid] had a melting point of 119.5 to 120 °C.

In turn, `CC(C)(Oc1ccc(OCc2cnc(-c3ccc(C(F)(F)F)cc3)nc2C2CC2)c(F)c1)C(=O)O` [Example 141, 2-{4-[4-Cyclopropyl-2-(4-trifluoromethyl-phenyl)-pyrimidin-5-ylmethoxy]-3-fluoro-phenoxy}-2-methyl-propionic acid] registered a melting point of 177.5 to 178 °C.

As for `Cc1cc(SCc2cnc(-c3ccc(OC(F)(F)F)cc3)nc2C2CC2)ccc1OC(C)(C)C(=O)O` [Example 142, 2-{4-[4-Cyclopropyl-2-(4-trifluoromethoxy-phenyl)-pyrimidin-5-ylmethylsulfanyl]-2-methyl-phenoxy}-2-methyl-propionic acid], the melting point was 127 to 128 °C (dec.).

The compound `Cc1cc(SCc2cnc(-c3ccc(C(F)(F)F)cc3)nc2C2CC2)ccc1OC(C)(C)C(=O)O` [Example 144, 2-{4-[4-Cyclopropyl-2-(4-trifluoromethyl-phenyl)-pyrimidin-5-ylmethylsulfanyl]-2-methyl-phenoxy}-2-methyl-propionic acid] had a melting point of 129 to 131 °C.

The compound `Cc1cc(OCc2ccc(-c3ccc(OC(F)(F)F)cc3)nc2C2CC2)ccc1OC(C)(C)C(=O)O` [Example 145, 2-{4-[2-Cyclopropyl-6-(4-trifluoromethoxy-phenyl)-pyridin-3-ylmethoxy]-2-methyl-phenoxy}-2-methyl-propionic acid] displayed a melting point of 131 to 133 °C.

`Cc1cc(OCc2ccc(-c3ccc(C(F)(F)F)cc3)nc2C)ccc1SCC(=O)O` [Example 146, {2-Methyl-4-[2-methyl-6-(4-trifluoromethyl-phenyl)-pyridin-3-ylmethoxy]-phenylsulfanyl}-acetic acid]: the melting point fell in the range of 168 to 169 °C.
